Measured values: patent US20100298141A1, “SUBSTITUTED PYRIDINE N-OXIDE HERBICIDES” (E. I. DU PONT DE NEMOURS AND COMPANY, priority 2007, published 2010)

Legend:
redroot pigweed = assay: Test A pre-/postemergence greenhouse test; format: in vivo, Amaranthus retroflexus; conditions: for Plant response rating, Pigweed: 0 to 100 scale where 0 is no effect and 100 is complete control; for Pigweed plant response rating: 0 to 100 scale
Outline: (§1)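 Seeds sown in a loam soil–sand blend got a preemergence directed soil spray of compound in a non-phytotoxic solvent mixture containing surfactant. Postemergence sprays of the same formulation went at the same time onto plants 2–10 cm tall at the one- to two-leaf stage. Injury was scored visually against untreated controls after about ten days in the greenhouse.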

rice = assay: Test C flooded paddy test; format: in vivo, Oryza sativa; conditions: Flood
Outline: (§2)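 Under a constant 3 cm flood, test compounds went directly into the paddy water. Following 13 to 15 days of greenhouse growth, treated species and controls were compared by eye.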

Surinam grass = assay: Test C pre-/postemergence test; format: in vivo, Brachiaria decumbens; conditions: Postemergence; for Plant response rating, Surinam Grass: scale 0 to 100, 0 no effect, 100 complete control
Text: (§3) Seeds of plant species selected from blackgrass (Alopecurus myosuroides), downy brome (Bromus tectorum), green foxtail (Setaria viridis), Italian ryegrass (Lolium multiflorum), wheat (Triticum aestivum), wild oat (Avena fatua), catchweed bedstraw (Galium aparine), Russian thistle (Salsola kali), […] (Cynodon dactylon), Surinam grass (Brachiaria decumbens), cocklebur (Xanthium strumarium), corn (Zea mays), crabgrass (Digitaria sanguinalis), woolly cupgrass (Eriochloa villosa), giant foxtail (Setaria faberii), Goosegrass (Eleusin indica), johnsongrass (Sorghum halepense), kochia (Kochia scoparia), lambsquarters (Chenopodium album), morningglory (Ipomoea coccinea), eastern black nightshade (Solanum ptycanthum), yellow nutsedge (Cyperus esculentus), pigweed (Amaranthus retroflexus), common ragweed (Ambrosia elation), soybean (Glycine max), common (oilseed) sunflower (Helianthus annuus), and velvetleaf (Abutilon theophrasti) were planted and treated preemergence with test chemicals formulated in a non-phytotoxic solvent mixture which included a surfactant. At the same time, plants selected from these crop and weed species and also winter barley (Hordeum vulgare), canarygrass (Phalaris minor), and chickweed (Stellaria media) were treated with postemergence applications of some of the test chemicals formulated in the same manner. Plants ranged in height from 2 to 18 cm (1- to 4-leaf stage) for postemergence treatments. […] At time of treatment, test pots were flooded to 3 cm above the soil surface, treated by application of test compounds directly to the paddy water, and then maintained at that water depth for the duration of the test. […] A dash (-) response means no test result.

pigweed = assay: Test C pre-/postemergence test; format: in vivo, Amaranthus retroflexus; conditions: Postemergence; for Plant response rating, Pigweed: scale 0 to 100, 0 no effect, 100 complete control
Text: as §3

lambsquarters = assay: Test C pre-/postemergence test; format: in vivo, Chenopodium album; conditions: Postemergence; for Plant response rating (0 to 100), Lambsquarters: 31 g ai/ha; for Plant response rating, Lambsquarters: scale 0 to 100, 0 no effect, 100 complete control
Text: as §3

corn = assay: Test A pre-/postemergence greenhouse test; format: in vivo, Zea mays; conditions: for Plant response rating, Corn: 0 to 100 scale where 0 is no effect and 100 is complete control; for Corn plant response rating: 0 to 100 scale
Outline: as §1

morningglory = assay: Test A pre-/postemergence greenhouse test; format: in vivo, Ipomoea spp.; conditions: for Plant response rating, Morningglory: 0 to 100 scale where 0 is no effect and 100 is complete control; for Morningglory plant response rating: 0 to 100 scale
Outline: as §1

Goosegrass = assay: Test C pre-/postemergence test; format: in vivo, Eleusin indica; conditions: Postemergence; for Plant response rating (0 to 100), Goosegrass: 31 g ai/ha; for Plant response rating, Goosegrass: scale 0 to 100, 0 no effect, 100 complete control
Text: as §3

bermudagrass = assay: Test C pre-/postemergence test; format: in vivo, Cynodon dactylon; conditions: Postemergence; for Plant response rating (0 to 100), Bermudagrass: 31 g ai/ha; for Plant response rating, Bermudagrass: scale 0 to 100, 0 no effect, 100 complete control
Text: as §3

wheat [1] = assay: Test C pre-/postemergence test; format: in vivo, Triticum aestivum; conditions: Postemergence; for Plant response rating, Wheat: scale 0 to 100, 0 no effect, 100 complete control
Text: as §3

giant foxtail = assay: Test A pre-/postemergence greenhouse test; format: in vivo, Setaria faberi; conditions: for Plant response rating, Foxtail, Giant: 0 to 100 scale where 0 is no effect and 100 is complete control; for Foxtail, Giant plant response rating: 0 to 100 scale
Outline: as §1

crabgrass = assay: Test C pre-/postemergence test; format: in vivo, Digitaria sanguinalis; conditions: Postemergence; for Plant response rating (0 to 100), Crabgrass, Large: 31 g ai/ha; for Plant response rating, Crabgrass, Large: scale 0 to 100, 0 no effect, 100 complete control
Text: as §3

umbrella sedge = assay: Test C flooded paddy test; format: in vivo, Cyperus difformis; conditions: Flood
Outline: as §2

wheat [2] = assay: Test A pre-/postemergence greenhouse test; format: in vivo, Triticum aestivum; conditions: for Plant response rating, Wheat: 0 to 100 scale where 0 is no effect and 100 is complete control; for Wheat plant response rating: 0 to 100 scale
Outline: as §1

barnyardgrass = assay: Test A pre-/postemergence greenhouse test; format: in vivo, Echinochloa crus-galli; conditions: for Plant response rating, Barnyardgrass: 0 to 100 scale where 0 is no effect and 100 is complete control; for Barnyardgrass plant response rating: 0 to 100 scale
Outline: as §1

[3] = Postemergence, 500 g ai/ha, 0 is no effect, 100 is complete control
[4] = Preemergence, 125 g ai/ha, 0 no effect, 100 complete control
[5] = 62 g ai/ha, scale 0 to 100 (0 no effect, 100 complete control)
[6] = 250 g ai/ha, scale 0 to 100, 0 no effect, 100 complete control, 13 to 15 days

Cn1nc(C(F)(F)F)c(C[S+]([O-])c2cccc[n+]2[O-])c1OCC(F)(F)C(F)(F)F (stereo not shown) [Compound 78]
30: Plant response rating, Pigweed (pigweed; 125 g ai/ha) | Corn plant response rating (corn; [4]) | Plant response rating, Morningglory (morningglory; Postemergence, 125 g ai/ha) | Plant response rating, Wheat (wheat [2]; Postemergence, 125 g ai/ha) | Wheat plant response rating (wheat [2]; [4])
75: Plant response rating, Sedge, Umbrella (umbrella sedge; [5])
0: Plant response rating (0 to 100), Surinam Grass (Surinam grass; 31 g ai/ha) | Plant response rating (0 to 100), Surinam Grass (Surinam grass; 62 g ai/ha) | Plant response rating, Surinam Grass (Surinam grass; 125 g ai/ha) | Plant response rating (0 to 100), Pigweed (pigweed; 31 g ai/ha) | Plant response rating (0 to 100), Pigweed (pigweed; 62 g ai/ha) | Plant response rating (0 to 100), Lambsquarters (lambsquarters) | Plant response rating, Lambsquarters (lambsquarters; 62 g ai/ha) | Plant response rating, Lambsquarters (lambsquarters; 125 g ai/ha) | Plant response rating, Lambsquarters (lambsquarters; 250 g ai/ha) | Plant response rating (0 to 100), Goosegrass (Goosegrass) | Plant response rating, Goosegrass (Goosegrass; 62 g ai/ha) | Plant response rating (0 to 100), Bermudagrass (bermudagrass) | Plant response rating, Bermudagrass (bermudagrass; 62 g ai/ha) | Plant response rating, Bermudagrass (bermudagrass; 125 g ai/ha) | Plant response rating, Bermudagrass (bermudagrass; 250 g ai/ha) | Plant response rating (0 to 100), Wheat (wheat [1]; 31 g ai/ha) | Plant response rating (0 to 100), Wheat (wheat [1]; 62 g ai/ha) | Plant response rating (0 to 100), Crabgrass, Large (crabgrass) | Plant response rating, Crabgrass, Large (crabgrass; 62 g ai/ha) | Plant response rating, Crabgrass, Large (crabgrass; 125 g ai/ha)
60: Pigweed plant response rating (redroot pigweed; [3]) | Morningglory plant response rating (morningglory; [3]) | Plant response rating, Goosegrass (Goosegrass; 250 g ai/ha) | Wheat plant response rating (wheat [2]; [3])
10: Pigweed plant response rating (redroot pigweed; [4]) | Plant response rating, Rice (rice; [5]) | Plant response rating, Goosegrass (Goosegrass; 125 g ai/ha) | Plant response rating, Wheat (wheat [1]; 125 g ai/ha) | Plant response rating, Wheat (wheat [1]; 250 g ai/ha)
100: Plant response rating, Pigweed (redroot pigweed; Preemergence, 500 g ai/ha) | Plant response rating, Foxtail, Giant (giant foxtail; Preemergence, 500 g ai/ha) | Plant response rating, Sedge, Umbrella (umbrella sedge; [6]) | Plant response rating, Wheat (wheat [2]; Preemergence, 500 g ai/ha) | Plant response rating, Barnyardgrass (barnyardgrass; Preemergence, 500 g ai/ha)
80: Plant response rating, Morningglory (morningglory; Preemergence, 500 g ai/ha) | Plant response rating, Foxtail, Giant (giant foxtail; Postemergence, 125 g ai/ha) | Foxtail, Giant plant response rating (giant foxtail; [3]) | Plant response rating, Barnyardgrass (barnyardgrass; Postemergence, 125 g ai/ha) | Barnyardgrass plant response rating (barnyardgrass; [3])
20: Plant response rating, Corn (corn; Postemergence, 125 g ai/ha) | Morningglory plant response rating (morningglory; [4]) | Plant response rating, Crabgrass, Large (crabgrass; 250 g ai/ha)
40: Corn plant response rating (corn; [3])
35: Plant response rating, Pigweed (pigweed; 250 g ai/ha)
70: Plant response rating, Rice (rice; [6]) | Plant response rating, Surinam Grass (Surinam grass; 250 g ai/ha) | Barnyardgrass plant response rating (barnyardgrass; [4])
50: Plant response rating, Pigweed (redroot pigweed; Postemergence, 125 g ai/ha)
90: Plant response rating, Corn (corn; Preemergence, 500 g ai/ha) | Foxtail, Giant plant response rating (giant foxtail; [4])

CCn1nc(C(F)(F)F)c(C(C)S(=O)(=O)c2cccc[n+]2[O-])c1OCC(F)(F)F (stereo not shown) [Compound 69]
70: Pigweed plant response rating (redroot pigweed; [4]) | Plant response rating, Rice (rice; [6]) | Morningglory plant response rating (morningglory; [3])
20: Plant response rating, Wheat (wheat [1]; 125 g ai/ha)
50: Morningglory plant response rating (morningglory; [4]) | Plant response rating, Bermudagrass (bermudagrass; 250 g ai/ha) | Plant response rating, Wheat (wheat [1]; 250 g ai/ha) | Plant response rating, Wheat (wheat [2]; Postemergence, 125 g ai/ha) | Wheat plant response rating (wheat [2]; [4])
40: Plant response rating, Rice (rice; [5]) | Plant response rating, Morningglory (morningglory; Postemergence, 125 g ai/ha) | Plant response rating, Goosegrass (Goosegrass; 250 g ai/ha)
30: Plant response rating, Pigweed (redroot pigweed; Postemergence, 125 g ai/ha)
60: Plant response rating, Corn (corn; Postemergence, 125 g ai/ha) | Wheat plant response rating (wheat [2]; [3]) | Barnyardgrass plant response rating (barnyardgrass; [4])
90: Pigweed plant response rating (redroot pigweed; [3]) | Plant response rating, Wheat (wheat [2]; Preemergence, 500 g ai/ha) | Barnyardgrass plant response rating (barnyardgrass; [3])
80: Corn plant response rating (corn; [3]) | Plant response rating, Corn (corn; Preemergence, 500 g ai/ha) | Plant response rating, Foxtail, Giant (giant foxtail; Postemergence, 125 g ai/ha) | Plant response rating, Barnyardgrass (barnyardgrass; Postemergence, 125 g ai/ha)
100: Plant response rating, Pigweed (redroot pigweed; Preemergence, 500 g ai/ha) | Plant response rating, Morningglory (morningglory; Preemergence, 500 g ai/ha) | Foxtail, Giant plant response rating (giant foxtail; [3]) | Foxtail, Giant plant response rating (giant foxtail; [4]) | Plant response rating, Foxtail, Giant (giant foxtail; Preemergence, 500 g ai/ha) | Plant response rating, Sedge, Umbrella (umbrella sedge; [5]) | Plant response rating, Sedge, Umbrella (umbrella sedge; [6]) | Plant response rating, Barnyardgrass (barnyardgrass; Preemergence, 500 g ai/ha)
0: Plant response rating (0 to 100), Surinam Grass (Surinam grass; 31 g ai/ha) | Plant response rating (0 to 100), Surinam Grass (Surinam grass; 62 g ai/ha) | Plant response rating, Surinam Grass (Surinam grass; 125 g ai/ha) | Plant response rating, Surinam Grass (Surinam grass; 250 g ai/ha) | Plant response rating (0 to 100), Pigweed (pigweed; 31 g ai/ha) | Plant response rating (0 to 100), Pigweed (pigweed; 62 g ai/ha) | Plant response rating, Pigweed (pigweed; 125 g ai/ha) | Plant response rating, Pigweed (pigweed; 250 g ai/ha) | Plant response rating (0 to 100), Lambsquarters (lambsquarters) | Plant response rating, Lambsquarters (lambsquarters; 62 g ai/ha) | Plant response rating, Lambsquarters (lambsquarters; 125 g ai/ha) | Plant response rating, Lambsquarters (lambsquarters; 250 g ai/ha) | Corn plant response rating (corn; [4]) | Plant response rating (0 to 100), Goosegrass (Goosegrass) | Plant response rating, Goosegrass (Goosegrass; 62 g ai/ha) | Plant response rating, Goosegrass (Goosegrass; 125 g ai/ha) | Plant response rating (0 to 100), Bermudagrass (bermudagrass) | Plant response rating, Bermudagrass (bermudagrass; 62 g ai/ha) | Plant response rating, Bermudagrass (bermudagrass; 125 g ai/ha) | Plant response rating (0 to 100), Wheat (wheat [1]; 31 g ai/ha) | Plant response rating (0 to 100), Wheat (wheat [1]; 62 g ai/ha) | Plant response rating (0 to 100), Crabgrass, Large (crabgrass) | Plant response rating, Crabgrass, Large (crabgrass; 62 g ai/ha) | Plant response rating, Crabgrass, Large (crabgrass; 125 g ai/ha) | Plant response rating, Crabgrass, Large (crabgrass; 250 g ai/ha)
